According to ChEMBL document CHEMBL3430912, “GSK Tres Cantos Anti-Kinetoplastid Screening (TCAKS) Data”:

Legend:
Trypanosoma cruzi [1] = experiment: (§1) GSK_TCAKS: pIC50 Trypanosoma cruzi Imaging: Infected Cells. […] Cells were then washed once with PBS before infection. T. cruzi trypomastigotes, collected at days 5 to 8 after infection from LLC-MK2 parasite infected cultures, were allowed to swim out for 4h at 37C from a centrifuged pellet (2,500 rpm/10 min/room temperature). Trypomastigotes were then collected and counted in a CASY Cell Counter. Trypomastigotes, in supplemented DMEM, were added to H9c2 cultures in a multiplicity of infection of 1 and incubated for 18 h. Cells were washed once with PBS before incubation of the infected H9c2 monolayer with trypsin (Life-Technologies) to detach cells from the flask. Cells were counted in a CASY Cell Counter using a 150 um capillary and their density set at 5 * 10^4 cells per mL in supplemented assay DMEM. Infected H9c2 were dispensed into 384-well poly-lysine coated assay plates at 50uL per well using a Multidrop Combi dispenser. After seeding them, the plates were incubated at 37C, 5% CO2 for 72h. Cultures were then fixed and stained by addition of 50 uL of a solution containing 8% formaldehyde and 4 uM DRAQ5 DNA dye (BioStatus, UK) per well. […] Five images were collected per well for reliable statistical analysis. Automated image analysis was performed with a script developed on Acapella High Content Imaging and Analysis Software (PerkinElmer). Output: percentage of infected cells per well as a second infection marker.; format: functional, organism-based, Rattus norvegicus; conditions: H9c2, 4 h
[2] = GSK_TCAKS: pIC50 HepG2 human cell line viability assay using luminiscence. […] Seeding density was checked to ensure that new mono-layers were not more than 50% confluent at the time of harvesting. Cell suspension was added to 500 mL of the same medium at a final density of 1.2 * 10^5 cells/mL. This cell suspension was dispensed (25 uL, 3000 cells per well) into 384-well clear-bottom plates using a Multidrop Combi dispenser. Prior to addition of the cell suspension, the screening compounds (250 nL) were pre-dispensed into the plates with an Echo liquid handler. Plates were incubated for 48 h at 37C, 5% CO2. After incubation, plates equilibrated at room temperature for 30 min before proceeding to develop the luminescent signal. The signal developer, CellTiter-Glo Reagent, was allowed to equilibrate at room temperature for 30 min and added to the plates (25uL per well) using a Multidrop Combi dispenser. Plates were left for 10 min at room temperature for stabilization and then read using a ViewLux.; format: toxicity, cell-based
Trypanosoma cruzi [3] = experiment: GSK_TCAKS: pIC50 Trypanosoma cruzi viability assay using beta-GAL activity. This assay was run at single shot at 5uM compound concentration per well. The biological reagents consisted of NIH-3T3 host cells and trypomastigotes parasitic cells; both cell types were set to a 3.3 * 10^5 cells/mL dilution in assay DMEM by means of a CASY cell counter device using a 60um capillary. 6 uL of the mixture were dispensed per well (about 1 * 10^3 host-cells and 1 * 10^3 parasites) with a Multidrop Combi dispenser. […] In all wells, the percentage of DMSO never exceeded 0.5%. Plates incubated for four days at 37C, 5% CO2. The substrate used for the assay fluorescence intensity (FLINT) readout was resorufin-beta-D-galactopiranoside (Sigma-Aldrich) at 5uM per well. It was diluted in PBS supplemented with the soft detergent Igepal (Fluka).; format: functional, organism-based, Mus musculus; conditions: Tulahuen, NIH3T3
Leishmania donovani [4] = experiment: (§2) GSK_TCAKS: pIC50 Leishmania donovani Imaging: Amastigotes/Macrophages. Assay plates (384-well) were prepared by adding 250nL of compound to each well. For single shot assay, the final compound concentration was 5 uM. […] Automated image analysis was performed with a script developed on Acapella High Content Imaging and Analysis Software (PerkinElmer). Output: Average number of amastigotes per macrophage cell were reported for each well.; format: functional, organism-based, Homo sapiens; conditions: THP-1
[5] = biological target: Sterol 14-alpha demethylase (Trypanosoma cruzi (strain CL Brener), UniProt Q7Z1V1); experiment: GSK_TCAKS: pIC50 CYP51 from Trypanosoma cruzi.; format: functional
[6] = tested on: Trypanosoma brucei brucei; experiment: GSK_TCAKS: pIC50 Trypanosoma brucei viability assay using fluorescence intensity. Assay plates (1536-well) were prepared by dispensing 25nL of compound solution per well using an Echo acoustic dispenser (Labcyte).; format: functional, organism-based; conditions: Lister 427, 2 h
Trypanosoma cruzi [7] = experiment: as §1, with “H2C9” for “Trypanosoma cruzi”, “H9c2 Host Cardiomyocytes.” for “Infected Cells.”, “Number” for “percentage”, “H9c2 Host Cardiomyocytes nuclei to determine drug-related cytotoxicity.” for “infected cells per well as a second infection marker.”; format: functional, organism-based, Rattus norvegicus; conditions: H9c2, 4 h
Trypanosoma cruzi [8] = experiment: GSK_TCAKS: pIC50 Trypanosoma cruzi Imaging: Amastigotes/Cell. […] Cells were then washed once with PBS before infection. T. cruzi trypomastigotes, collected at days 5 to 8 after infection from LLC-MK2 parasite infected cultures, were allowed to swim out for 4h at 37C from a centrifuged pellet (2,500 rpm/10 min/room temperature). Trypomastigotes were then collected and counted in a CASY Cell Counter. Trypomastigotes, in supplemented DMEM, were added to H9c2 cultures in a multiplicity of infection of 1 and incubated for 18 h. Cells were washed once with PBS before incubation of the infected H9c2 monolayer with trypsin (Life-Technologies) to detach cells from the flask. Cells were counted in a CASY Cell Counter using a 150 um capillary and their density set at 5 * 10^4 cells per mL in supplemented assay DMEM. Infected H9c2 were dispensed into 384-well poly-lysine coated assay plates at 50uL per well using a Multidrop Combi dispenser. After seeding them, the plates were incubated at 37C, 5% CO2 for 72h. Cultures were then fixed and stained by addition of 50 uL of a solution containing 8% formaldehyde and 4 uM DRAQ5 DNA dye (BioStatus, UK) per well. […] Five images were collected per well for reliable statistical analysis. Automated image analysis was performed with a script developed on Acapella High Content Imaging and Analysis Software (PerkinElmer). Output: number of amastigotes per cell as infection level measurement.; format: functional, organism-based, Rattus norvegicus; conditions: H9c2, 4 h
Leishmania donovani [9] = experiment: as §2, with “Infected Macrophages.” for “Amastigotes/Macrophages.”, “Percent” for “Average number”, “infected” for “amastigotes per”, “cells” for “cell”; format: functional, organism-based, Homo sapiens; conditions: THP-1
Leishmania donovani [10] = experiment: as §2, with “THP-1 Host Macrophages.” for “Amastigotes/Macrophages.”, “THP-1” for “Average number of amastigotes per macrophage”, “cell count” for “cell”; format: functional, organism-based, Homo sapiens
[11] = tested on: Trypanosoma brucei brucei; experiment: GSK_TCAKS: pIC50 Trypanosoma brucei viability assay using luminiscence. Assay plates (1536-well) were prepared. T. brucei cultures were harvested and counted in a CASY cell counter. A parasite suspension was prepared at a final concentration of 5 * 10^4 cells/mL in complete HMI9 medium and 6uL was dispensed to all wells containing compounds using a Multidrop Combi dispenser. 6uL of HMI9 media with 0.4% DMSO were dispensed to control columns. Plates were incubated for 24 h at 37C, 5% CO2 then tempered for 10 min at room temperature. ATP content was quantified by adding 4 uL of CellTiter-Glo Reagent (Promega) according to the manufacturer's instructions. Luminescence was measured using a ViewLux.; format: functional, organism-based; conditions: Lister 427, CASY
Leishmania donovani [12] = experiment: GSK_TCAKS: pIC50 Leishmania donovani viability assay using fluorescence intensity. Assay plates (1536-well) were prepared by adding 30nL per well of compound. For single shot assay, the final compound concentration was 5uM. […] Briefly, eGFP LdBOB axenic amastigotes were harvested, fixed and counted in a CASY cell counter (Roche-Applied Science). A final concentration of 1.5 * 10^5 cells per well were prepared in amastigote media containing 500 U/mL penicillin/streptomycin (Invitrogen) and 6uL was dispensed to each experimental well using a Multidrop Combi dispenser (Thermo Scientific). 6uL of assay media was dispensed to control columns used as reference for 100% compound response. Following incubation for 72 h at 37C, 5% CO2, 2 uL of resazurin was added to each well at a final concentration of 0.5 mM in phosphate buffered saline (PBS) with IGEPAL (Sigma-Aldrich), 0.05% (v/v).; format: functional, organism-based

Sterol 14-alpha demethylase, sequence (Q7Z1V1 whole entry): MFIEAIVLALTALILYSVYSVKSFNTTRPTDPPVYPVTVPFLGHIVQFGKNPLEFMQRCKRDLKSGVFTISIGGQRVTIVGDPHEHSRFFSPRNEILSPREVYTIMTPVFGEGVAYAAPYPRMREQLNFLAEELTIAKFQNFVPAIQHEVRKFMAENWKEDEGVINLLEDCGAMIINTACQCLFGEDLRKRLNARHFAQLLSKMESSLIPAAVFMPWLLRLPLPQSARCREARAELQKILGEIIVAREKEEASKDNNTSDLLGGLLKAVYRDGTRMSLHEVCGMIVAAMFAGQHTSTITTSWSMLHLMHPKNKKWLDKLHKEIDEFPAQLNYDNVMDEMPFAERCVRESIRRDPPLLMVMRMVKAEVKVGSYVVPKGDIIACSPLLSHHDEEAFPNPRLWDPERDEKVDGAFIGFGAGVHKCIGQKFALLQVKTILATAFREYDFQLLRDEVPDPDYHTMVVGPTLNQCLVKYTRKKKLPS

| Structure (SMILES) | IC50 (Trypanosoma cruzi [1]) [nM] | IC50 at 48 h [2] [µM] | IC50 (Trypanosoma cruzi [3]) [nM] | IC50 (Leishmania donovani [4]) [µM] | IC50 [5] [µM] | IC50 [6] [nM] | IC50 (Trypanosoma cruzi [7]) [µM] | IC50 (Trypanosoma cruzi [8]) [nM] | IC50 (Leishmania donovani [9]) [µM] | IC50 (Leishmania donovani [10]) [µM] | IC50 [11] [nM] | IC50 (Leishmania donovani [12]) [µM] |
| --- | --- | --- | --- | --- | --- | --- | --- | --- | --- | --- | --- | --- |
| O=C(Nc1nc(-c2ccccn2)cs1)c1ccccc1-n1cnnn1 | 3160 | 1.58 | 3550 | 3.98 | > 100 | 631 | 5.01 | 2000 | 6.31 | 5.01 | 631 | 3.16 |
| O=C(NCCc1csc(-c2ccc(F)cc2)n1)c1cccs1 | 398 | > 100 | 398 | 20 | 25.1 | 251 | > 50.1 | 251 | > 50.1 | > 50.1 | 200 | > 50.1 |
| COc1cccc2sc(CN(C)C(=O)C3CNCCN3c3ccc(F)cc3)c(C)c12 (stereo unspecified) | 200 | 12.6 | 398 | 3.98 | 0.251 | 158 | 7.94 | 158 | 6.31 | 12.6 | 251 | 31.6 |
| CCCCCNC(=O)c1c[nH]c2ccc(S(=O)(=O)N(C)c3ccc(OCC)cc3)cc2c1=O | > 50100 | > 100 | 31600 | > 50.1 | 1.58 | 316 | > 50.1 | > 50100 | > 50.1 | > 50.1 | 251 | > 50.1 |
| CCOc1ccc2nc(NC(=O)c3ccc([N+](=O)[O-])s3)sc2c1 | 1260 | 31.6 | 1780 | 5.01 | > 100 | 1260 | 10 | 1000 | 6.31 | > 50.1 | 2510 | 2.51 |
| O=C(NCC(c1cccs1)N1CCOCC1)c1ccc([N+](=O)[O-])o1 (stereo unspecified) | 15800 | 20 | 3160 | 15.8 | 10 | 316 | 5.01 | 15800 | 25.1 | 25.1 | 316 | 31.6 |
| CCN(CC)c1ncc(C(=O)c2ccc([N+](=O)[O-])o2)s1 | 12600 | 15.8 | 3980 | 10 | 39.8 | 100 | 5.01 | 7940 | 10 | 6.31 | 398 | 5.01 |
| O=C(Nc1nc(-c2ccccn2)cs1)C1CCc2ccccc2C1 (stereo unspecified) | 2510 | 39.8 | 2000 | 0.398 | 25.1 | 3160 | 3.98 | 2000 | 0.631 | 7.94 | 3160 | 5.01 |
